Assay results reported in US11013720B2, “Ganetespib-containing particle, pharmaceutical composition comprising the same, and their use in anticancer treatment” (NATIONAL CHIAO TUNG UNIVERSITY, priority 2019, dated 2021).
In brackets after ≈: the same amount, converted by molar mass.

What was measured:
A549 cell line = assay: In vitro anticancer effect against A549 cell line (MTT assay); format: cell-based; conditions: Homo sapiens
Protocol: (§1) The A549 cells described in section 1 of Experimental Materials were placed in a 24-well culture plate at 1×10^4 cells/well, followed by cultivation in DMEM supplemented with 10% FBS at 37° C. and 5% CO2. The A549 cells in the wells were respectively treated with the free ganetespib test solutions and the CHC-ganetespib test solutions. Specifically, 200 μL of a respective test solution was added into a corresponding well containing the A549 cells. The A549 cells which were not treated with the free ganetespib test solutions and the CHC-ganetespib test solutions served as a normal control. After the treatment, cultivation was conducted for 48 hours at 37° C. and 5% CO2.
(§2) The respective resulting culture was subjected to washing twice with PBS after removal of the liquid in the well, and was subjected to determination of cell viability by virtue of the 3-(4,5-dimethylthiazol-2-yl)-2,5-diphenyltetrazoli-umbromide (MTT) assay. Specifically, a suitable amount of a MTT solution (having a MTT concentration of 1.9 mg/mL) was added to the respective culture, followed by incubation for 4 hours. The liquid in the well was removed, and dimethylsulfoxide (DMSO) was added into the well to dissolve formazan dye. Absorbance of the mixture in the well at 450 nm (0D450) was measured using a microplate reader (Tecan Sunrise, Switzerland). The cell viability (%) was calculated by substituting the absorbance into the following equation (2): D=(E/F)×100 (2) • D=cell viability (%) • E=OD450 of respective culture • F=OD450 of normal control
(§3) IC50 (half maximal inhibitory concentration) of the free ganetespib and the CHC-ganetespib particle agasint A549 cell line was determined based on the free ganetespib concentrations and the CHC-ganetespib particle concentrations, respectively, as well as the cell viability resulting from such concentrations.

H1299 cell line = assay: In vitro anticancer effect against H1299 cell line (MTT assay); format: cell-based; conditions: Homo sapiens, NCI-H1299
Protocol: as §1, §2, §3
The in vitro anticancer effect of the free ganetespib and the CHC-ganetespib particle agasint H1299 cell line was determined generally according to the method described in section B of this example, except that the H1299 cells described in section 1 of Experimental Materials were placed in a 24-well culture plate at 5×10^4 cells/well, followed by cultivation in RPMI medium supplemented with 10% FBS.

Work on CC(C)c1cc(-c2nnc(O)n2-c2ccc3c(ccn3C)c2)c(O)cc1O [Free ganetespib, 4-[5-hydroxy-4-(1-methyl-1H-indol-5-yl)-4H-1,2,4-triazol-3-yl]-6-(propan-2-yl)benzene-1,3-diol] yielded a viability at 0.0015625 µg/mL (A549 cell line; A549, 1.5625 ng/mL, 48 hours) of 98%, a viability at 0.003125 µg/mL (A549 cell line; A549, 3.125 ng/mL, 48 hours) of 70% and a viability at 0.00625 µg/mL (A549 cell line; A549, 6.25 ng/mL, 48 hours) of 52%. The viability at 0.0125 µg/mL (A549 cell line; A549, 12.5 ng/mL, 48 hours) was 40%, the viability at 0.025 µg/mL (A549 cell line; A549, 25 ng/mL, 48 hours) was 30% and the IC50 (A549 cell line; A549, 48 hours, MTT) was 8.8 ng/mL (≈ 0.0241 µM). The viability at 0.0015625 µg/mL (H1299 cell line; H1299, 1.5625 ng/mL, 48 hours) was 93%, the viability at 0.003125 µg/mL (H1299 cell line; H1299, 3.125 ng/mL, 48 hours) was 85% and the viability at 0.00625 µg/mL (H1299 cell line; H1299, 6.25 ng/mL, 48 hours) was 55%. The viability at 0.01 µg/mL (H1299 cell line; H1299, 10 ng/mL, 48 hours) was 48%, the viability at 0.02 µg/mL (H1299 cell line; H1299, 20 ng/mL, 48 hours) was 23% and the IC50 (H1299 cell line; H1299, 48 hours, MTT) was 10.3 ng/mL (≈ 0.0283 µM).
